Reference: article PMC3822689 (Journal of Cellular and Molecular Medicine, 2012)

Legend:
[1] = target: PBR (peripheral benzodiazepine binding sites, rat kidney mitochondrial membranes) (Rattus norvegicus, UniProt P16257); experiment: [3H]-PK 11195 binding, peripheral benzodiazepine receptor; conditions: 10 and 100 μM
[2] = system: CBR (central benzodiazepine binding sites, rat cerebral cortex membranes); experiment: [3H] Ro 15-1788 binding, central benzodiazepine receptor; conditions: 10 and 100 μM

Chain of PBR (peripheral benzodiazepine binding sites, rat kidney mitochondrial membranes) (P16257 whole entry): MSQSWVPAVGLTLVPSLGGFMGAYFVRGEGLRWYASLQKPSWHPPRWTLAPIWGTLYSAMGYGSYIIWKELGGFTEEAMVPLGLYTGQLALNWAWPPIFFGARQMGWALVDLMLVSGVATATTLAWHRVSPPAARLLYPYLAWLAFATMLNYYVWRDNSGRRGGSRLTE

SMILES | affinity for PBR [1] | affinity for CBR [2]
CCC(C)N(C)C(=O)c1cc2ccccc2c(-c2ccccc2Cl)n1 (stereo not shown) [PK 11195, 1-(2-chlorophenyl)-N-methyl-N-(1-methylpropyl)-3-isoquinoline carboxamide] | high affinity | 
CCOC(=O)c1ncn2c1CN(C)C(=O)c1cc(F)ccc1-2 [Ro 15–1788] |  | high affinity
CN1C(=O)CN=C(c2ccccc2)c2cc(Cl)ccc21 [diazepam] | high affinity | high affinity
